Data published in US11591353B2 (Mindset Pharma Inc., priority 2020, dated 2023).

Experiments:
human 5-HT2A receptor = human 5-HT2A receptor (Homo sapiens (Human), UniProt P28223); assay: Radioligand binding assay on human 5-HT2A receptor ([3H]-ketanserin)
Experimental: i. Prepare the assay buffer following the table below;
ii. Preparation of 8 doses of reference and test compounds starting from 10 mM stock solution as requested by 5-fold serial dilutions with 100%;
iii. […] a. Add 50 μl/well of 0.5% (v/v) PEI to UniFilter-96 GF/B plates. Seal the plates and incubate at 4° C. for 3 hrs; b. After incubation, wash the plates 3 times with ice-cold wash buffer (50 mM Tris, pH7.4);
iv. Preparation of assay plates: a. Dilute cell membrane with assay buffer and add 330 μl/well to 96 round deep well plates to reach a concentration of 20 μg/well; b. […] Dilute [3H]-ketanserin with assay buffer to 5 nM (5× final concentration) and add 110 μl/well to 96 round deep well plates.
v. Centrifuge the plate at 1000 rpm for 30 secs and then agitate at 600 rpm, R.T. for 5 min.
vii. Stop the incubation by vacuum filtration onto GF/B filter plates followed by 4 times washing with ice-cold wash buffer (50 mM Tris, pH7.4).
ix. […]
For reference and exemplary test compounds of the application, the results are expressed as % Inhibition, using the normalization equation: N=100−100×(U−C2)/(C1−C2), where U is the unknown value, C1 is the average of high controls, and C2 is the average of low controls. The IC50 is determined by fitting percentage of inhibition as a function of compound concentrations with Hill equation using XLfit.

male C57 BL6 mice = assay: Mouse head-twitch response (HTR); format: in vivo; settings: head twitches over a 1 h period, FIG. 1 and FIG. 2
Experimental: FIG. 1 is a graph showing the effect of various doses of exemplary compound of Formula I, I-28, on head-twitch response (HTR) in male C57 BL6 mice. The mice were treated with compound I-28 ([…]) by PO route (N=6 mice/dose), and the total number of head twitches were recorded over a 1 h period. Data is expressed as mean±SEM. The induction of head twitches elicited by 5-HT2A receptor agonists is believed to represent a behavioural proxy of their psychedelic effects.
The mice were treated with compound MSP-1007 (0.03-10 mg/kg) by SC route (N=6 mice/dose), and the total number of head twitches were recorded over a 1 h period. Data is expressed as mean±SEM. […]
The effect of different doses of exemplary compound I-28 of Formula I and its active metabolite were evaluated on head-twitch response (HTR) as a behavior-based model of psychedelic activity.
Male, C57 BL/6 J mice (body weight range 20-30 g) were dosed with the appropriate dose of test article, and following a 1-minute pre-treatment time, placed in individual observation chambers. Animals were visually assessed for the incidence head twitches continuously over a 1 hr period. […] Each head twitch was individually counted by a trained observer, and the data expressed as the mean±SEM of 6-10 mice per group. […]

Question: `[2H]C([2H])([2H])N(C([2H])([2H])[2H])C([2H])([2H])C([2H])([2H])c1c[nH]c2cccc(OC(=O)CCCCCCC/C=C\C/C=C\CCCCC)c12` [Compound I-28, 3-(2-(bis(methyl-d3)amino)ethyl-1,1,2,2-d4)-1H-indol-4-yl (9Z,12Z)-octadeca-9,12-dienoate] was tested. Which IC50 (human 5-HT2A receptor) did it give?
Answer: 516 nM

Question: `[2H]C([2H])([2H])N(C([2H])([2H])[2H])C([2H])([2H])C([2H])([2H])c1c[nH]c2cccc(O)c12` [Compound I-45, 3-(2-(bis(methyl-d3)amino)ethyl-1,1,2,2-d4)-1H-indol-4-ol] was tested. Which “efficacy to induce head twitch (in words)” value (male C57 BL6 mice) did it give?
Answer: greater efficacy to induce head twitch than the exemplary prodrug I-28
